Data on five compounds can be found in patent EP0158299A2, “Substituted phenylethyl derivatives, process for their preparation and pharmaceutical agents” (Merz & Co. GmbH & Co., priority 1984, dated 1985).

≈ marks a conversion by molar mass, not a printed value. Structures can show the parent of a compound that is named as a salt. Where only a bound is given, the exact number is not on record here.

Holding throughout (format): cell-based
For one assay, the system named is A.c. The assay is described as follows: serial dilution test, fungistatic activity (MIC). The note with it: Pilzspezies A.c.; read-out: Minimale Hemmkonzentrationen. The source says:
(§1) Die erfindungemäßen Verbindungen wurden im Reihenverdünnungstest auf ihre fungistatische Wirksamkeit gegen verschiedene Pilzspezies und gegen verschiedene Bakterienstämme geprüft. Die so ermittelten minimalen Hemmkonzentrationen (MHK) sind in den folgenden Tabellen wiedergegeben: […]

The subject of the next assay is A.f. The assay is described as follows: serial dilution test, fungistatic activity (MIC). The note with it: Pilzspezies A.f.; read-out: Minimale Hemmkonzentrationen.
Excerpt: as §1

For another assay, the system named is C.a. The assay is described as follows: serial dilution test, fungistatic activity (MIC). The note with it: Pilzspezies C.a.; read-out: Minimale Hemmkonzentrationen.
Excerpt: as §1

Another assay deals with C.t. The assay is described as follows: serial dilution test, fungistatic activity (MIC). To be noted: Pilzspezies C.t.; read-out: Minimale Hemmkonzentrationen.
Excerpt: as §1

The next assay relates to M.c. The assay is described as follows: serial dilution test, fungistatic activity (MIC). The note with it: Pilzspezies M.c.; read-out: Minimale Hemmkonzentrationen.
Excerpt: as §1

For a further assay, the system named is T.m. As to the kind of experiment: serial dilution test, fungistatic activity (MIC). The note with it: Pilzspezies T.m.; read-out: Minimale Hemmkonzentrationen.
Excerpt: as §1

In the next assay the test system is T.r. As to the kind of experiment: serial dilution test, fungistatic activity (MIC). The note with it: Pilzspezies T.r.; read-out: Minimale Hemmkonzentrationen.
Excerpt: as §1

A further assay deals with Staphylococcus aureus. As to the kind of experiment: serial dilution test against bacterial strains (MIC). To be noted: Bakterienstämme S.a. = Staphylococcus aureus; read-out: Minimale Hemmkonzentrationen.
Excerpt: as §1

For another assay, the system named is Streptococcus faecalis. The description is as above. To be noted: Enterococcus faecalis; Bakterienstämme S.f. = Streptococcus faecalis; read-out: Minimale Hemmkonzentrationen.
Excerpt: as §1

The test system of another assay is Streptococcus pyogenes. The description is as above. To be noted: Bakterienstämme S.p. = Streptococcus pyogenes; read-out: Minimale Hemmkonzentrationen.
Excerpt: as §1

A further assay has as its system S.s. As to the kind of experiment: serial dilution test, fungistatic activity (MIC). The note with it: Pilzspezies S.s.; read-out: Minimale Hemmkonzentrationen.
Excerpt: as §1

For `FC(F)(Oc1ccc(CON=C(Cn2ccnc2)c2ccc(Cl)cc2Cl)cc1)C(Cl)Cl` [Verbind. I, 1-(2,4-Dichlorphenyl)-2-(1H-imidazol-1-yl)-0-(4-(2,2-dichlor-1,1-difluorethoxy)benzyl)ethanonoxim-nitrat], the MIC is 1.6 µg/mL (≈ 3.14 µM) in the assay on A.c.; 12.5 µg/mL (≈ 24.5 µM) in the assay with A.f.; 0.1 µg/mL (≈ 0.196 µM) in the assay on C.a.; 0.8 µg/mL (≈ 1.57 µM) in the assay on C.t.; 3.1 µg/mL (≈ 6.09 µM) in the assay with M.c.; 6.25 µg/mL (≈ 12.3 µM) with T.m.. The MIC came out at 6.25 µg/mL (≈ 12.3 µM) with T.r., 6.25 µg/mL (≈ 12.3 µM) in the assay on Staphylococcus aureus, 12.5 µg/mL (≈ 24.5 µM) in the assay with Streptococcus faecalis and 0.8 µg/mL (≈ 1.57 µM) with Streptococcus pyogenes.

In the case of `Clc1ccc(C(Cn2ccnc2)=NOCc2ccc(C3CC3(Cl)Cl)cc2)c(Cl)c1` (stereo not shown) [Verbind. II, 1-(2,4-Dichlorphenyl)-2-(1H-imidazol-1-yl)-0-(4-(2,2-di-chlorcyclopropyl)benzyl)ethanonoxim-nitrat], the MIC in the assay with A.f. is 25 µg/mL (≈ 53.3 µM); with C.a., 3.1 µg/mL (≈ 6.61 µM); in the assay on C.t. it was 25 µg/mL (≈ 53.3 µM); with S.s., 1.6 µg/mL (≈ 3.41 µM); in the assay on T.m., 12.5 µg/mL (≈ 26.6 µM); with T.r., 6.2 µg/mL (≈ 13.2 µM).

Regarding `Clc1ccc(C(Cn2ccnc2)OCc2ccc(C3CC3(Cl)Cl)cc2)c(Cl)c1` (stereo not shown) [Verbind. III, 1-(2,4-Dichlorphenyl)-1-(4-(2,2-dichlorcyclopropyl)benzyloxy)-2-(1H-imidazol-1-yl)ethan-nitrat], the MIC with A.f. was 1.6 µg/mL (≈ 3.51 µM); in the assay on C.a., 0.05 µg/mL (≈ 0.11 µM); in the assay with C.t., 3.1 µg/mL (≈ 6.8 µM); in the assay with S.s. it was 0.2 µg/mL (≈ 0.438 µM); with T.m., 0.8 µg/mL (≈ 1.75 µM); with T.r. it was 0.8 µg/mL (≈ 1.75 µM).

Take `FC(F)(Oc1ccc(COC(Cn2ccnc2)c2ccc(Cl)cc2Cl)cc1)C(Cl)Cl` (stereo not shown) [Verbind. IV, 1-(2,4-Dichlorphenyl)-1-(4-(2,2-dichlor-1,1-difluor-ethoxy)benzyloxy)-2-(1H-imidazol-1-yl)ethan-hydrochlorid]: the MIC in the assay on A.f. was found to be 3.1 µg/mL; in the assay with C.a., 0.1 µg/mL; in the assay on C.t., 0.1 µg/mL; in the assay on T.m. it was 0.1 µg/mL; in the assay with T.r., 0.1 µg/mL; in the assay on Staphylococcus aureus it was 3.1 µg/mL. For the same compound, the figures for the MIC in the assay on Streptococcus faecalis and in the assay with Streptococcus pyogenes were 1.6 µg/mL and less than 0.2 µg/mL, respectively.

Regarding `FC(Cl)C(F)(F)Oc1ccc(COC(Cn2ccnc2)c2ccc(Cl)cc2Cl)cc1` (stereo not shown) [Verbind. VI, 1-(2,4-Dichlorphenyl)-1-(4-(2-chlor-1,1,2-trifluorethoxy)benzyloxy)-2-(1H-imidazol-1-yl)ethan-nitrat], the MIC worked out at 1.6 µg/mL (≈ 3.34 µM) in the assay on A.f.; 0.05 µg/mL (≈ 0.104 µM) in the assay with C.a.; 1.6 µg/mL (≈ 3.34 µM) in the assay with C.t.; 0.2 µg/mL (≈ 0.417 µM) with M.c.; 0.1 µg/mL (≈ 0.208 µM) in the assay with S.s.; 0.8 µg/mL (≈ 1.67 µM) in the assay with T.m.. Besides, the MIC with T.r. came out at 0.8 µg/mL (≈ 1.67 µM).
